Data published in article PMC7913925, “Design and Evaluation of a Polypeptide That Mimics the Integrin Binding Site for EDA Fibronectin to Block Profibrotic Cell Activity” (International Journal of Molecular Sciences, 2021).
Bridges are numbered along the chain shown (N, C = ends). Where no end group is shown, it is not given here.

Assays:
[1] = tested on: human HFL1 lung fibroblast cells, α-SMA mRNA; assay: α-SMA mRNA expression (qRT-PCR) in TGF-β1-treated HFL1; format: cell-based
Method: HFL1 cells were cultured in Kaighn’s modified Ham’s F-12 (F-12K) medium (Sigma-Aldrich) containing NaHCO3 and HEPES buffered to pH 7. Cells were grown to confluence in T75 culture flasks in the presence of 10% fetal bovine serum (FBS; Gibco, Thermo Fisher Scientific, Waltham, MA, USA). HFL1 cells were subcultured using 0.05% trypsin at a ratio of 1:3. NIH/3T3 cells were cultured in Dulbecco’s Modified Eagle Medium (DMEM; HyClone, Thermo Fisher Scientific) containing 100 U/mL penicillin and 100 μg/mL streptomycin. Cells were grown to confluence in T75 culture flasks in the presence of 10% FBS. NIH/3T3 cells were subcultured using 0.05% trypsin/EDTA at a ratio of 1:3. All cells were maintained at 37 °C and 5% CO2, and growth medium was replenished every 3 days until experimentation. Cells were growth-arrested in serum-free medium for 48 h before experiments, and all experiments were performed under serum-free conditions using cells between passages 3 and 8.
Reverse transcription (RT) and real-time quantitative PCR (qRT-PCR) were used to assess ACTA2/Acta2, Col1a1, Col3a1, Fn1, Eda-Fn1, Mmp9, Tgfb1, Ltbp1, Hic5, and Mrtfa mRNA expressions. Custom PCR primers were designed in-house (Table 2) and then synthesized by BGI (Beijing, China). […]

[2] = tested on: NIH/3T3 fibroblasts, collagen gel contraction; assay: Collagen gel contraction assay; format: cell-based, mouse; conditions: TGF-β1 10 ng/mL + AF38Pep 10 µg/mL vs TGF-β1 alone
Method: Approximately 2 × 10^4/mL NIH/3T3 fibroblasts were added to a solution containing 3 mg/mL rat tail collagen type I (BD Biosciences, San Diego, CA, USA), 260 mM NaHCO3, 200 mM HEPES and 50 mM NaOH. To each well of a 24-well cell culture plate, 500 µL of collagen-cell solution was added and allowed to polymerize at 37 °C for 1 h. The gels were carefully detached from the well walls before resuspension of gels in 1% FBS-DMEM and maintained at 37 °C, in a 5% CO2 atmosphere for 24 h. The DMEM medium was removed and replaced with serum-free DMEM medium with or without 10 ng/mL TGF-β1 and/or 10 µg/mL AF38Pep. Gels were photographed and measured at days 0, 1, 2, 4, and 6 after treatment. The average contraction values were obtained using ImageJ v1.37c (NIH, Bethesda, MD, USA) and are expressed as a percentage of contraction versus the initial gel diameter at 0 days.

[3] = tested on: OPN–ITGA4 interaction; assay: Co-IP of OPN with ITGA4; format: cell-based; conditions: 48 h, Co-IP with anti-ITGA4
Method: Total protein was extracted from cells in RIPA lysis buffer containing 1% protease inhibitor cocktail, 1% phenylmethylsulfonyl fluoride, and 1% sodium orthovanadate (Santa Cruz Biotechnology, Santa Cruz, CA, USA). Protein was quantified by Micro BCA Protein Assay Kit (Thermo Fisher Scientific) before 7.5% SDS-PAGE and transfer to nitrocellulose. Membranes were blocked with 5% bovine serum albumin (BSA; Sigma-Aldrich)/0.5% Tween-20 (Sigma-Aldrich)/PBS for 1 h, RT, followed by incubation with primary antibodies diluted in 1% BSA/0.1% Tween-20/PBS, overnight at 4 °C. Primary antibodies were: anti-phosphoY204/Y187 ERK1/2 (1:1000); anti-ERK1/2 (1:1000); anti-phosphoY861 FAK (1:1000); anti-FAK (1:2000). Immunoblotting for anti-GAPDH (1:2500) was used as a protein loading control. Following wash steps, membranes were incubated in goat anti-rabbit IgG H&L secondary antibody (horseradish peroxidase, HRP conjugate, […]) (Abcam; 1:5000 dilution, 1% BSA/0.1% Tween-20/PBS). Detection was performed using Immobilon reagent (Merck Millipore, Burlington, MA, USA) and imaged using a Tanon 5500 Chemiluminescent Imaging System (Tanon, Shanghai, China).
A volume of 25 µg total protein from cell lysate in nondenaturing lysis buffer containing protease inhibitors was immunoprecipitated (IP) using anti-ITGA4 antibodies linked to protein A/G sepharose beads (Abcam). […]

[4] = tested on: Mrtfa mRNA in NIH/3T3 fibroblasts; assay: qRT-PCR Mrtfa mRNA; format: cell-based, mouse; conditions: 48 h, TGF-β1 10 ng/mL
Method: Reverse transcription (RT) and real-time quantitative PCR (qRT-PCR) were used to assess ACTA2/Acta2, Col1a1, Col3a1, Fn1, Eda-Fn1, Mmp9, Tgfb1, Ltbp1, Hic5, and Mrtfa mRNA expressions. Custom PCR primers were designed in-house (Table 2) and then synthesized by BGI (Beijing, China). Cells were grown in 6-well culture plates and washed with phosphate buffered saline (PBS) before lysis with TRIzon Reagent (CWBio, Beijing, China) and total RNA purification according to the manufacturer’s protocol. Reverse transcription was carried using the TransScript First-Strand cDNA Synthesis SuperMix kit according to the manufacturer’s protocol (TransGen, Beijing, China), using the random primer method for the initiation of cDNA synthesis. Nuclease-free H2O replaced the RNA sample to serve as a negative control for the reverse transcription reaction. For qRT-PCR, 10 µL 2× TransStart Top Green qPCR SuperMix was added to each well of a 96-well PCR plate containing 0.4 µL forward primer, 0.4 µL reverse primer, […], and nuclease-free water to a total volume of 20 µL. The qRT-PCR reaction was completed using a CFX96 Real-Time PCR Detection System (Bio-Rad Laboratories, Hercules, CA, USA). Amplification used the following parameters: 94 °C for 30 s, followed by 40 cycles of 94 °C for 5 s, 55 °C for 15 s, 72 °C for 10 s, and then a dissociation stage (melt-curve). […]

VMPYISTTPAKPCTSENCGNSWYGGFKSKNENKIYFIN (disulfide 13-18 (inferred)) [AF38Pep]
attenuation of TGF-β1-induced α-SMA mRNA ([1]; HFL1, 48 h, 0.1–10 µg/mL): significantly reduced by 0.1–10 µg/mL peptide at 48 h | attenuation of TGF-β1-induced α-SMA mRNA ([1]; HFL1, 72 h, 10 µg/mL): only 10 µg/mL was sufficient for inhibition of expression at 72 h | collagen gel contraction ([2]; 96 h): significantly delayed collagen gel contraction | collagen gel contraction ([2]; 144 h): maintained a significant difference in contraction | OPN–ITGA4 binding [3]: did not influence OPN–ITGA4 binding | MRTFA mRNA expression [4]: attenuated
